{"source": "patent US9789044B2", "about": "“Compounds and methods for repelling blood-feeding arthropods and deterring their landing and feeding” (SCOTTS CANADA LTD, priority 2008, dated 2017)", "key": {"mosquitoes": {"system": "mosquitoes", "conditions": "in vivo; cited from earlier work"}, "Aedes aegypti [1]": {"system": "Aedes aegypti", "test": "General bioassay: treated human forearm in cage with host-seeking female mosquitoes, complete protection time (modified WHO 1996 protocol)", "format": "in vivo", "conditions": "10% formulation in mineral oil, 1.5 mg (total composition) per cm^2 on human forearm skin", "description": "A black-eyed Liverpool strain of Aedes. aegypti was obtained from Dr. Carl Lowenberger, Simon Fraser University (SFU). Insects were reared under standardized conditions (60-70% relative humidity, 26-28° C., 14 h light:10 h dark photoperiod) in SFU's insectary. Neonate larvae that hatched in glass dishes of sterilized hypoxic water were transferred to trays of distilled water provisioned with Nutrafin® Basix Staple Food fish diet. Pupae were collected daily and separated by sex, and 15 females and 10 males were placed in a paper cup (7.5 cm diameter, 8.5 cm high) with a mesh lid. Emergent adults were fed a 10% (w/v) sucrose solution via braided cotton dental rolls. Arm-fed gravid females were offered water-containing paper cups, lined with paper-towel as an oviposition substrate. Candidate repellents and deterrents were bioassayed according to a modified protocol from the World Health Organization (1996). At least 1 hour prior to each bioassay, 75 host-seeking non blood-fed, nulliparous, 5- to 8-day-old female Aedes aegypti were placed into a wood-framed cage (26.5 cm on each side and 42.5 cm high) with a wooden floor, screened mesh sides and top, and a clear acrylic front fitted with a cotton stockinette sleeve (10 cm diameter). […] The time elapsed from experiment initiation to first bite was recorded as deterrent failure or complete protection time. […]"}, "Anopheles gambiae": {"system": "Anopheles gambiae", "conditions": "by itself or in combination with an adjuvant; cited from earlier work"}, "Culex quinquefasciatus": {"system": "Culex quinquefasciatus", "conditions": "by itself or in combination with an adjuvant; cited from earlier work"}, "Aedes aegypti [2]": {"system": "Aedes aegypti", "conditions": "by itself or in combination with an adjuvant; cited from earlier work"}}}
{"smiles": "C=CCSCCCCCCCCCO", "note": "[9-allylsulfanylnonan-1-ol]", "values": [{"measurement": "repellency to mosquitoes", "setting": "mosquitoes", "result": "repellent"}]}
{"smiles": "C=CCSCCCCCCC(C)O", "note": "(centres unmarked) [8-allylsulfanyloctan-2-ol]", "values": [{"measurement": "repellency to mosquitoes", "setting": "mosquitoes", "result": "repellent"}]}
{"smiles": "C=CCSCCCCCCCCO", "note": "[8-allylsulfanyl-1-octanol]", "values": [{"measurement": "average duration of protection from bites by Aedes aegypti", "setting": "Aedes aegypti [1]; Experiments 1-6, 3-4 replicates", "result": 123, "unit": "min"}, {"measurement": "deterring biting, effectiveness relative to DEET", "setting": "Anopheles gambiae", "result": "more effective than DEET"}, {"measurement": "deterring biting, effectiveness relative to DEET", "setting": "Culex quinquefasciatus", "result": "more effective than DEET"}, {"measurement": "deterring biting, effectiveness relative to DEET", "setting": "Aedes aegypti [2]", "result": "more effective than DEET"}, {"measurement": "repellency to mosquitoes", "setting": "mosquitoes", "result": "repellent"}]}
{"smiles": "C=CCSCCCCCCCC(=O)N(CC)CC", "note": "[(N,N)-diethyl-8-allylsulfanyl-octanamide]", "values": [{"measurement": "average duration of protection from bites by Aedes aegypti", "setting": "Aedes aegypti [1]; Experiment 7, 4 replicates", "result": 156, "unit": "min"}]}
